Measurements taken from patent US11008314B2, “Compounds and methods for modulating interleukin-2-inducible t-cell kinase” (CORVUS PHARMACEUTICALS, INC., priority 2016, dated 2021).
pIC50: −log10 of the molar value.

What was measured:
ITK = ITK (Homo sapiens (Human), UniProt Q08881); assay: IC50 against ITK; format: biochemical
TXK = TXK (Homo sapiens (Human), UniProt P42681); assay: IC50 against TXK; format: biochemical; details: for TXK/ITK: ratio of TXK IC50 to ITK IC50
JAK3 = JAK3 (Homo sapiens (Human), UniProt P52333); assay: IC50 against JAK3; format: biochemical
BTK = BTK (Homo sapiens (Human), UniProt Q06187); assay: IC50 against BTK; format: biochemical
Jurkat IL2 = Jurkat IL2 IC50; format: cell-based; details: Homo sapiens, Jurkat cells
Rat PO PK = details: in vivo, 6 mg/kg, PO 6 mpk
Mouse PO PK = details: in vivo, 10 mg/kg, PO 10 mpk

Sequence of BTK (Q06187 whole entry, species assumed): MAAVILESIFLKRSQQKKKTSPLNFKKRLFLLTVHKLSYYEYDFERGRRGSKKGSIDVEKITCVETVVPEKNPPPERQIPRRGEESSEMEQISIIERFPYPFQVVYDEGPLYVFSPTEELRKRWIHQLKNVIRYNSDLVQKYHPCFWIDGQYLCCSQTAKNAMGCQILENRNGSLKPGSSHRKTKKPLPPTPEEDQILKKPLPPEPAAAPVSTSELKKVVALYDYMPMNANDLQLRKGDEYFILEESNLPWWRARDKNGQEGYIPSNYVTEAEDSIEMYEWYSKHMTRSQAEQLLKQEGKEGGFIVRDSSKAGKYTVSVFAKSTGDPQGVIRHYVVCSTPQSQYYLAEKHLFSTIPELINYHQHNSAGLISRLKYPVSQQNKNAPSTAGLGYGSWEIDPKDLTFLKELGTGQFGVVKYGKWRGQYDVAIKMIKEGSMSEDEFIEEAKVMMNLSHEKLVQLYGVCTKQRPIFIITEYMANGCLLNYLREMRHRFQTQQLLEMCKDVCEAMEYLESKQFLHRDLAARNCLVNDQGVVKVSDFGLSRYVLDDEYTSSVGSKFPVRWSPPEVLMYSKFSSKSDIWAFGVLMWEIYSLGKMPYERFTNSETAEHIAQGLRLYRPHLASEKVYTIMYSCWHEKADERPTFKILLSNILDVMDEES
Sequence of JAK3 (P52333 whole entry, species assumed): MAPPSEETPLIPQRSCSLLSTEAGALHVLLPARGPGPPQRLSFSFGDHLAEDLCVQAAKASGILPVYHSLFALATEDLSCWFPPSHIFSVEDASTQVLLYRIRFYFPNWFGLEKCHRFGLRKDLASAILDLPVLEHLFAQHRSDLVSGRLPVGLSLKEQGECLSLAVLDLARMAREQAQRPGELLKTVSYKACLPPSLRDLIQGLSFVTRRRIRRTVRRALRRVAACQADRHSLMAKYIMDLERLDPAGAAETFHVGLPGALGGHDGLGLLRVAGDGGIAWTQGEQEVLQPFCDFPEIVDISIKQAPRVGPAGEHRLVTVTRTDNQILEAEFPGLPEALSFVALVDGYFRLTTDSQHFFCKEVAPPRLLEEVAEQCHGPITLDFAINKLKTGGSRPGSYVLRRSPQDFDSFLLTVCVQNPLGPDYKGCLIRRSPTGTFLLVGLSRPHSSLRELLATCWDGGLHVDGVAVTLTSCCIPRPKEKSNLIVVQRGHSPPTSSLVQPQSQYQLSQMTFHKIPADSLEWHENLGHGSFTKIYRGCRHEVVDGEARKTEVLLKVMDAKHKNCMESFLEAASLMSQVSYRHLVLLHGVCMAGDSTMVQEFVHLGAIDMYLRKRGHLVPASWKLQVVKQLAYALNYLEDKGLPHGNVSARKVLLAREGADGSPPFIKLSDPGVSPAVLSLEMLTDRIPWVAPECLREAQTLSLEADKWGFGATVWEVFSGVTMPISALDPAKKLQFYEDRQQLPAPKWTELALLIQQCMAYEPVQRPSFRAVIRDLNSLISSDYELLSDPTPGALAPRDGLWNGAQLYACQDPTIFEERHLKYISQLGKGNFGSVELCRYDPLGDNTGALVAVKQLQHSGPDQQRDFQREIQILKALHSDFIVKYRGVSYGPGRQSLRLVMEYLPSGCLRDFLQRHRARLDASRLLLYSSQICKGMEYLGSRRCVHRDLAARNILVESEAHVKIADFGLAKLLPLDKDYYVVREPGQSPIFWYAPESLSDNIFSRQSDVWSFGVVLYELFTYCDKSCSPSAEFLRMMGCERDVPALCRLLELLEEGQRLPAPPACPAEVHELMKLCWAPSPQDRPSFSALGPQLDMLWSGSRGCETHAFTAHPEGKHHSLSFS
Sequence of TXK (P42681 whole entry, species assumed): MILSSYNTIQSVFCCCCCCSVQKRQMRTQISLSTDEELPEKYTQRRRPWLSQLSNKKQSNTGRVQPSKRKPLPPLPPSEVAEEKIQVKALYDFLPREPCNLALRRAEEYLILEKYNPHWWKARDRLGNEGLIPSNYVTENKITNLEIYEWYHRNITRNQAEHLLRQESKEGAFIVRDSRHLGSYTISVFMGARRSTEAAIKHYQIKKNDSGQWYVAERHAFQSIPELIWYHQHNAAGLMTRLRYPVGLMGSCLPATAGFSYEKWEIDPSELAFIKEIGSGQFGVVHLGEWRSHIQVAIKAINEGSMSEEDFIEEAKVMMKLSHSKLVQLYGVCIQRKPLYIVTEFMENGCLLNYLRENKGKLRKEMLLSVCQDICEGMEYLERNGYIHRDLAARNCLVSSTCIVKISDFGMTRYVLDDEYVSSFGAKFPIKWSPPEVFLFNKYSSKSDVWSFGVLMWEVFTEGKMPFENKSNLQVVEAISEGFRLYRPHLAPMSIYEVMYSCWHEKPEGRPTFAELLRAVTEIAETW
Sequence of ITK (Q08881 whole entry): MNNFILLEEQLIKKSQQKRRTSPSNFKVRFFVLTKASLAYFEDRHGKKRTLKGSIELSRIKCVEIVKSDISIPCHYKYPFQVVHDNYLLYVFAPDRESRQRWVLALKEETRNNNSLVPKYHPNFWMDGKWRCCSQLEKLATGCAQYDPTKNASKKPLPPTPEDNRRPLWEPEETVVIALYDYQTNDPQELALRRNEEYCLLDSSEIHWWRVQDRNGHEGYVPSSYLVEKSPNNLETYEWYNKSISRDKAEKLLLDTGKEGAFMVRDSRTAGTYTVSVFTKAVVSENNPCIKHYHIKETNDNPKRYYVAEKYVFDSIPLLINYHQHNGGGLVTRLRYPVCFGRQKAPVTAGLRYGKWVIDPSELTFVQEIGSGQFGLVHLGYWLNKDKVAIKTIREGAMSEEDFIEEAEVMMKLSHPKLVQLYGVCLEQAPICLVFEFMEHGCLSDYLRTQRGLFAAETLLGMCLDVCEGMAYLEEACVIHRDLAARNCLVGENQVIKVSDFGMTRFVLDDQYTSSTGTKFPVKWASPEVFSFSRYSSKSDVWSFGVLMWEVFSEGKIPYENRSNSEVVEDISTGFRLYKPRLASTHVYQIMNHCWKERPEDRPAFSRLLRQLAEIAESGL

## C=CC(=O)N1CCN(C(=O)c2cc(Sc3cnc(NC(=O)C4CC4)s3)c(C)cc2OC)CC1 [Compound 1]
ITK
  IC50: < 10 nM
TXK
  IC50: < 10 nM
  TXK/ITK: 7.378
JAK3
  IC50: 100 to 1000 nM
BTK
  IC50: 100 to 1000 nM
Jurkat IL2
  pIC50: 8.00
Rat PO PK
  AUC(0-t): 0.0109 µg·h/mL
  Cmax: 0.097 µg/mL
  bioavailability: 10.9%
Mouse PO PK
  AUC(0-t): 0.335 µg·h/mL
  Cmax: 0.613 µg/mL
  bioavailability: 20.1%

## C=CC(=O)N1CCN(C(=O)c2cc(Sc3cnc(NC(=O)C4CC4)s3)c(C)cc2OC)C[C@H]1C [Compound 21]
ITK
  IC50: < 10 nM
TXK
  IC50: 10 to 100 nM
  TXK/ITK: 22.223
JAK3
  IC50: 100 to 1000 nM
BTK
  IC50: 100 to 1000 nM
Jurkat IL2
  pIC50: 7.28
Rat PO PK
  AUC(0-t): 0.0181 µg·h/mL
  Cmax: 0.148 µg/mL
  bioavailability: 18.1%
Mouse PO PK
  AUC(0-t): 0.215 µg·h/mL
  Cmax: 0.292 µg/mL
  bioavailability: 10.5%

## C=CC(=O)N1CCCN(C(=O)c2cc(Sc3cnc(NC(=O)c4cccc(CN(C)C)c4)s3)c(C)cc2OC)CC1 [Compound 33]
ITK
  IC50: < 10 nM
TXK
  IC50: 1000 to 10000 nM
  TXK/ITK: 239.91
JAK3
  IC50: 1000 to 10000 nM
BTK
  IC50: 100 to 1000 nM
Jurkat IL2
  pIC50: 7.00
Rat PO PK
  AUC(0-t): 0.0004 µg·h/mL
  Cmax: 0.0157 µg/mL
  bioavailability: 0.4%

## C=CC(=O)N1CCCN(C(=O)c2cc(Sc3cnc(NC(=O)C4CC4)s3)c(C)cc2OC)C[C@H]1C [Compound 44]
TXK
  IC50: 100 to 1000 nM
JAK3
  IC50: 1000 to 10000 nM
BTK
  IC50: 100 to 1000 nM
Jurkat IL2
  pIC50: 7.51
Rat PO PK
  AUC(0-t): 0.0125 µg·h/mL
  Cmax: 0.075 µg/mL
  bioavailability: 12.5%
Mouse PO PK
  AUC(0-t): 0.226 µg·h/mL
  Cmax: 0.368 µg/mL
  bioavailability: 9.8%

## C=CC(=O)N1CCCN(C(=O)c2cc(Sc3cnc(NC(=O)c4ccc(F)c(CN(C)C)c4)s3)c(C)cc2OC)CC1 [Compound 50]
ITK
  IC50: < 10 nM
TXK
  IC50: 1000 to 10000 nM
  TXK/ITK: 230.63
JAK3
  IC50: 1000 to 10000 nM
BTK
  IC50: 100 to 1000 nM
Jurkat IL2
  pIC50: 7.44
Rat PO PK
  AUC(0-t): 0.0034 µg·h/mL
  Cmax: 0.0252 µg/mL
  bioavailability: 3.4%

## C=CC(=O)N1CCN(C(=O)c2cc(Sc3cnc(NC(=O)c4ccsc4)s3)c(C)cc2OC)CC1 [Compound 90]
ITK
  IC50: < 10 nM
TXK
  IC50: < 10 nM
  TXK/ITK: 8.3141
JAK3
  IC50: 10 to 100 nM
BTK
  IC50: 10 to 100 nM
Jurkat IL2
  pIC50: 7.48
Mouse PO PK
  AUC(0-t): 0.419 µg·h/mL
  Cmax: 0.527 µg/mL
  bioavailability: 20%

## C=CC(=O)N1CCCN(C(=O)c2cc(Sc3cnc(Nc4ccccn4)s3)c(C)cc2OC)C[C@H]1C(C)C [Compound 147, (R)-l-(2-isopropyl-4-(2-methoxy-4-methyl-5-((2-(pyridin-2-ylamino)thiazol-5-yl)thio)benzoyl)-1,4-diazepan-1-yl)prop-2-en-1-one]
ITK
  IC50: < 10 nM
TXK
  IC50: 100 to 1000 nM
  TXK/ITK: 29.58
JAK3
  IC50: 1000 to 10000 nM
BTK
  IC50: 10 to 100 nM

## C=CC(=O)N1CCCN(C(=O)c2cc(Sc3cnc(NC(=O)C4CC4)s3)c(C)cc2OC)C[C@H]1C(C)C [Compound 148, (R)-N-(5-((5-(4-acryloyl-3-isopropyl-1,4-diazepane-1-carbonyl)-4-methoxy-2-methylphenyl)thio)thiazol-2-yl)cyclopropanecarboxamide]
ITK
  IC50: < 10 nM
TXK
  IC50: 100 to 1000 nM
  TXK/ITK: 82.31
JAK3
  IC50: ≥ 10000 nM
BTK
  IC50: 100 to 1000 nM

## C=CC(=O)N1CCCN(C(=O)c2cc(Sc3cnc(NC(=O)c4ccsc4)s3)c(C)cc2OC)C[C@H]1C(C)C [Compound 149, (R)-N-(5-((5-(4-acryloyl-3-isopropyl-1,4-diazepane-l-carbonyl)-4-methoxy-2-methylphenyl)thio)thiazol-2-yl)thiophene-3-carboxamide]
ITK
  IC50: < 10 nM
TXK
  IC50: 100 to 1000 nM
  TXK/ITK: 171.45
JAK3
  IC50: ≥ 10000 nM
BTK
  IC50: 10 to 100 nM

## C=CC(=O)N1[C@@H]2CC[C@H]1CN(C(=O)c1cc(Sc3cnc(Nc4ccccn4)s3)c(C)cc1OC)C2 [Compound 150, 1-((1R, 5S)-3-(2-methoxy-4-methyl-5-((2-(pyridin-2-ylamino)thiazol-5-yl)thio)benzoyl)-3,8-diazabicyclo[3.2.1]octan-8-yl)prop-2-en-1-one]
ITK
  IC50: < 10 nM
TXK
  IC50: < 10 nM
  TXK/ITK: 1.76
JAK3
  IC50: 10 to 100 nM
BTK
  IC50: < 10 nM

## C=CC(=O)N1CCN(C(=O)c2cc(Sc3cnc(Nc4ccccn4)s3)c(C)cc2OC)[C@@H](C)C1 [Compound 151, (S)-1-(4-(2-methoxy-4-methyl-5-((2-(pyridin-2-ylamino)thiazol-5-yl)thio)benzoyl)-3-methylpiperazin-1-yl)prop-2-en-1-one]
ITK
  IC50: < 10 nM
TXK
  IC50: < 10 nM
  TXK/ITK: 6.43
JAK3
  IC50: 10 to 100 nM
BTK
  IC50: 10 to 100 nM

## C=CC(=O)N1CCC2(C1)CN(C(=O)c1cc(Sc3cnc(Nc4ccccn4)s3)c(C)cc1OC)C2 [Compound 152, 1-(2-(2-methoxy-4-methyl-5-((2-(pyridin-2-ylamino)thiazol-5-yl)thio)benzoyl)-2,6-diazaspiro[3.4]octan-6-yl)prop-2-en-1-one]
ITK
  IC50: < 10 nM
TXK
  IC50: < 10 nM
  TXK/ITK: 2.06
JAK3
  IC50: 100 to 1000 nM
BTK
  IC50: 10 to 100 nM

## C=CC(=O)N1CCN(C(=O)c2cc(Sc3cnc(Nc4ccccn4)s3)c(C)cc2OC)C[C@H]1C#N [Compound 153, (S)-1-acryloyl-4-(2-methoxy-4-methyl-5-((2-(pyridin-2-ylamino)thiazol-5-yl)thio)benzoyl)piperazine-2-carbonitrile]
ITK
  IC50: < 10 nM
TXK
  TXK/ITK: 0.61
JAK3
  IC50: < 10 nM
BTK
  IC50: < 10 nM

## C=CC(=O)N1CC[C@@H](N(C)C(=O)c2cc(Sc3cnc(Nc4ccccn4)s3)c(C)cc2OC)C1 [Compound 154, (R)-N-(1-acryloylpyrrolidin-3-yl)-2-methoxy-N,4-dimethyl-5-((2-(pyridin-2-ylamino)thiazol-5-yl)thio)benzamide]
ITK
  IC50: < 10 nM
TXK
  IC50: < 10 nM
  TXK/ITK: 1.01
JAK3
  IC50: < 10 nM
BTK
  IC50: < 10 nM

## C=CC(=O)N1[C@@H]2CC[C@H]1CN(C(=O)c1cc(Sc3cnc(NC(=O)c4ccsc4)s3)c(C)cc1OC)C2 [Compound 155, N-(5-((5-((1R, 5S)-8-acryloyl-3,8-diazabicyclo[3.2.1]octane-3-carbonyl)-4-methoxy-2-methylphenyl)thio)thiazol-2-yl)thiophene-3-carboxamide]
ITK
  IC50: < 10 nM
TXK
  IC50: < 10 nM
  TXK/ITK: 2.73
JAK3
  IC50: 10 to 100 nM
BTK
  IC50: < 10 nM

## C=CC(=O)N1CCN(C(=O)c2cc(Sc3cnc(NC(=O)c4ccsc4)s3)c(C)cc2OC)C[C@H]1C#N [Compound 156, (S)-N-(5-((5-(4-acryloyl-3-cyanopiperazine-1-carbonyl)-4-methoxy-2-methylphenyl)thio)thiazol-2-yl)thiophene-3-carboxamide]
ITK
  IC50: < 10 nM
TXK
  IC50: < 10 nM
  TXK/ITK: 3.09
JAK3
  IC50: < 10 nM
BTK
  IC50: < 10 nM
